Source: ChEMBL document CHEMBL2202956, “(±)-Tylopilusins, diphenolic metabolites from the fruiting bodies of Tylopilus eximius” (J Nat Prod, 2012)

Columns and labels:
Staphylococcus aureus [1] = experiment: Toxicity in methicillin-resistant Staphylococcus aureus assessed as growth inhibition at 20 ug/6mm disk after 68 hrs; type: organism-based; conditions: in vitro
Staphylococcus aureus [2] = experiment: Inhibition of yellow pigment production in methicillin-resistant Staphylococcus aureus at 20 ug/6mm disk after 68 hrs by paper disk method; type: functional

Compound	Activity (Staphylococcus aureus [1])	inhibition zone (IZ) (Staphylococcus aureus [2]) [mm]
COC(=O)[C@@]1(O)C(c2ccc(O)cc2)=C(O)C(=O)[C@@]1(O)c1ccc(O)cc1	Non-toxic	7
COC(=O)[C@]1(O)C(c2ccc(O)cc2)=C(O)C(=O)[C@]1(OC)c1ccc(O)cc1	Non-toxic	9
COC(=O)[C@@]1(O)C(c2ccc(O)cc2)=C(O)C(=O)[C@@]1(OC)c1ccc(O)cc1	Non-toxic	8
COC(=O)[C@]1(O)C(c2ccc(O)cc2)=C(O)C(=O)[C@]1(O)c1ccc(O)cc1	Non-toxic	7
